One compound from patent EP4316461A1, “A PRESERVATIVE COMPOSITION” (BRAIN Biotech AG, priority 2022, dated 2024) can be followed below.

Each structure is given as a SMILES string. Converted amounts (≈) assume the structure as drawn.

Holding throughout (test): Antimicrobial activity (MIC)
Holding throughout (assay type): cell-based

The test system of one experiment is Clostridium sporogenes. As to conditions: Clostridium sporogenes, ATCC19404; Strain ID ATCC 19404; potato dextrose broth pH 3.8; read-out: Minimal Inhibitory Concentration (MIC).
A further experiment concerns Listeria monocytogenes. Particulars: Listeria monocytogenes, DSM20600; Strain ID DSM 20600; potato dextrose broth pH 3.8; read-out: Minimal Inhibitory Concentration (MIC).
For experiment [1], the system named is Salmonella enterica ssp. enterica Ser. typhimurium. As to conditions: Salmonella enterica, DSM 17058 / TYPHIMURIUM; Strain ID DSM 17058; potato dextrose broth pH 3.8; read-out: Minimal Inhibitory Concentration (MIC).
A further experiment deals with Zygosaccharomyces bailii. Particulars: Zygosaccharomyces bailii, DSM70834; Strain ID DSM 70834; potato dextrose broth pH 3.8; read-out: Minimal Inhibitory Concentration (MIC).
The test system of the next experiment is Byssochlamys fulva. As to conditions: Paecilomyces fulvus, DSM1808; Strain ID DSM 1808; potato dextrose broth pH 3.8; read-out: Minimal Inhibitory Concentration (MIC).
A further experiment deals with Bacillus licheniformis. As to conditions: Bacillus licheniformis, DSM13; Strain ID DSM 13; potato dextrose broth pH 3.8; read-out: Minimal Inhibitory Concentration (MIC).
A further experiment concerns Corynebacterium xerosis. Particulars: Corynebacterium xerosis, DSM20743; Strain ID DSM 20743; potato dextrose broth pH 3.8; read-out: Minimal Inhibitory Concentration (MIC).
The next experiment concerns Candida parapsilosis. Particulars: Lodderomyces parapsilosis, ATCC20384; Strain ID ATCC 20384; potato dextrose broth pH 3.8; read-out: Minimal Inhibitory Concentration (MIC).
The test system of a further experiment is Alternaria alternata. As to conditions: Alternaria alternata, DSM12633; Strain ID DSM 12633; potato dextrose broth pH 3.8; read-out: Minimal Inhibitory Concentration (MIC).
A further experiment relates to Campylobacter jejuni. As to conditions: Campylobacter jejuni, DSM4688; Strain ID DSM 4688; potato dextrose broth pH 3.8; read-out: Minimal Inhibitory Concentration (MIC).
In another experiment the test system is Porphyromonas gingivalis. As to conditions: Porphyromonas gingivalis, DSM20709; Strain ID DSM 20709; potato dextrose broth pH 3.8; read-out: Minimal Inhibitory Concentration (MIC).
The test system of experiment [2] is Alicyclobacillus acidoterrestris. Particulars: Alicyclobacillus acidoterrestris, DSM2498; Strain ID DSM 2498; potato dextrose broth pH 3.8; read-out: Minimal Inhibitory Concentration (MIC).
A further experiment concerns Actinomyces viscosus. Particulars: Actinomyces viscosus; Strain ID DSM43798; potato dextrose broth pH 3.8; read-out: Minimal Inhibitory Concentration (MIC).

`C[C@@H]1O[C@@H](O[C@H]2[C@H](O[C@H]3CC[C@@]4(C)[C@@H](CC[C@]5(C)[C@@H]4CC=C4[C@@H]6CC(C)(C)CC[C@]6(C(=O)O)CC[C@]45C)[C@]3(C)CO)OC[C@H](O)[C@@H]2O)[C@H](O)[C@H](O[C@@H]2OC[C@@H](O)[C@H](O)[C@H]2O)[C@H]1O` [A, Sapindoside B [30994-75-3]]: the MIC is 80 µg/mL (≈ 90.6 µM) in the experiment with Clostridium sporogenes; > 80 µg/mL in the experiment on Listeria monocytogenes; > 80 µg/mL in [1]; > 80 µg/mL in the experiment on Zygosaccharomyces bailii; > 80 µg/mL in the experiment on Byssochlamys fulva; > 80 µg/mL with Bacillus licheniformis. In addition, the MIC in the experiment with Corynebacterium xerosis was > 80 µg/mL; in the experiment on Candida parapsilosis it was > 80 µg/mL; in the experiment on Alternaria alternata, > 80 µg/mL; in the experiment on Campylobacter jejuni, > 80 µg/mL; with Porphyromonas gingivalis, > 80 µg/mL; in experiment [2] it was 40 µg/mL (≈ 45.3 µM). In addition, the MIC with Actinomyces viscosus is > 80 µg/mL.
